Measurements from ChEMBL document CHEMBL3045623, “Pyrazole derivatives as photosynthetic electron transport inhibitors: new leads and structure-activity relationship” (J Agric Food Chem, 2005).

Biological target: Photosystem II protein D1 (Spinacia oleracea, UniProt P69560)
Assay: Inhibition of photosynthetic electron transport at the PSII level in intact chloroplasts from Spinacia oleracea (spinach) leaves assessed as inhibition of in vitro activity by Hill reaction assay

| Compound | IC50 (read-out: IC50) | other results |
| --- | --- | --- |
| Cc1onc(C(=O)NC2CC2)c1C(=O)O | 100 µM | – |
| Cc1[nH]nc(C(=O)NC2CC2)c1C(=O)O | > 100000 µM | pIC50: < 1 |
| Cc1c(C(=O)O)c(C(=O)NC2CC2)nn1C | 1190 µM | – |
| Cc1onc(C(=O)NC(C)(C)C)c1C(=O)O | 290 µM | – |
| Cc1c(C(=O)O)c(C(=O)NC(C)(C)C)nn1C | 670 µM | – |
| Cc1c(C(=O)O)c(C(=O)NC(C)(C)C)nn1-c1ccccc1 | 7600 µM | – |
| Cc1c(C(=O)O)c(C(=O)NC(C)(C)C)nn1-c1ccc(Cl)cc1 | 950 µM | – |
| Cc1c(C(=O)O)c(C(=O)NC(C)(C)C)nn1-c1c(Cl)cc(C(F)(F)F)cc1Cl | 1040 µM | – |
| Cc1c(C(=O)O)c(C(=O)NC(C)(C)C)nn1C(C)(C)C | > 100000 µM | pIC50: < 1 |
| Cc1c(C(=O)O)c(C(=O)NC2CC2)nn1C(C)(C)C | 68000 µM | – |
| Cc1c(C(=O)O)c(C(=O)NC2CC2)nn1-c1ccccc1 | 22500 µM | – |
| Cc1c(C(=O)O)c(C(=O)NC2CC2)nn1-c1ccc(Cl)cc1 | 370 µM | – |
| Cc1c(C(=O)O)c(C(=O)NC2CC2)nn1-c1c(Cl)cc(C(F)(F)F)cc1Cl | 12200 µM | – |
| O=c1sc(Nc2cccc(C(F)(F)F)c2)nc2[nH]ncc12 | 33.2 µM | – |
| O=c1sc(Nc2ccc(Br)cc2)nc2[nH]ncc12 | 28.5 µM | – |
| O=c1sc(Nc2ccc(Cl)cc2)nc2[nH]ncc12 | 38.5 µM | – |
| O=c1sc(Nc2cccc(Cl)c2)nc2[nH]ncc12 | 48 µM | – |
| O=c1sc(Nc2ccccc2Cl)nc2[nH]ncc12 | 47.8 µM | – |
| O=c1sc(Nc2ccc([N+](=O)[O-])cc2)nc2[nH]ncc12 | 1060 µM | – |
| CCNc1nc2[nH]ncc2c(=O)s1 | 335 µM | – |
| CCCCNc1nc2[nH]ncc2c(=O)s1 | 211 µM | – |
| O=c1sc(NCc2ccccc2)nc2[nH]ncc12 | 10.8 µM | – |
| O=c1sc(NC2CCCCC2)nc2[nH]ncc12 | 66.5 µM | – |

| Compound | IC50 (read-out: IC50) | other results |
| --- | --- | --- |
| FC(F)(F)c1cccc(Nc2nc3[nH]ncc3c(=S)s2)c1 | 2.78 µM | – |
| S=c1sc(Nc2ccc(Br)cc2)nc2[nH]ncc12 | 6.06 µM | – |
| S=c1sc(Nc2ccc(Cl)cc2)nc2[nH]ncc12 | 21.3 µM | – |
| S=c1sc(Nc2cccc(Cl)c2)nc2[nH]ncc12 | 15.3 µM | – |
| S=c1sc(Nc2ccccc2Cl)nc2[nH]ncc12 | 43.1 µM | – |
| CCNc1nc2[nH]ncc2c(=S)s1 | 10.7 µM | – |
| CCCCNc1nc2[nH]ncc2c(=S)s1 | 2.67 µM | – |
| S=c1sc(NCc2ccccc2)nc2[nH]ncc12 | 2.84 µM | – |
| S=c1sc(NC2CCCCC2)nc2[nH]ncc12 | 0.64 µM | – |
| CCC(C)n1c(=O)[nH]c2cc(C)nn2c1=O (configuration not stated) | – | IC50 (read-out: pIC50 (converted)): 2.6 µM |
| CCn1c(=O)[nH]c2cc(C)nn2c1=O | – | IC50 (read-out: pIC50 (converted)): 32 µM |
| CCCCn1c(=O)[nH]c2cc(C)nn2c1=O | – | IC50 (read-out: pIC50 (converted)): 6.61 µM |
| Cc1cc2[nH]c(=O)n(Cc3ccccc3)c(=O)n2n1 | – | IC50 (read-out: pIC50 (converted)): 42 µM |
| Cc1cc2[nH]c(=O)n(C3CCCCC3)c(=O)n2n1 | – | IC50 (read-out: pIC50 (converted)): 0.32 µM |
| Cc1cc2[nH]c(=O)n(-c3ccccc3)c(=O)n2n1 | – | IC50 (read-out: pIC50 (converted)): 169 µM |
| CC/N=c1/sc(=O)[nH]c2cc(C)nn12 | – | IC50 (read-out: pIC50 (converted)): 2.9 µM |
| CCCC/N=c1/sc(=O)[nH]c2cc(C)nn12 | – | IC50 (read-out: pIC50 (converted)): 0.57 µM |
| Cc1cc2[nH]c(=O)s/c(=N/Cc3ccccc3)n2n1 | – | IC50 (read-out: pIC50 (converted)): 18 µM |
| Cc1cc2[nH]c(=O)s/c(=N/C3CCCCC3)n2n1 | – | IC50 (read-out: pIC50 (converted)): 0.21 µM |
| CN(C)C(=O)Nc1ccc(Cl)c(Cl)c1 [DCMU] | – | IC50 (read-out: pIC50 (converted)): 0.27 µM |
| CN(C)c1nc(=O)n(C2CCCCC2)c(=O)n1C [HEXAZINONE] | – | IC50 (read-out: pIC50 (converted)): 0.11 µM |
| O=c1[nH]c2c(c(=O)n1C1CCCCC1)CCC2 [LENACIL] | – | IC50 (read-out: pIC50 (converted)): 0.08 µM |
